# Laboratory results reported in US20220402925A1, “COMPOUNDS AND METHODS FOR THE TREATMENT OF CYSTIC FIBROSIS” (Flatley Discovery Lab, LLC, priority 2019, published 2022).
# Biological target: T1, F508del CFTR (Homo sapiens, UniProt P13569, DEL508-508)
# T1 construct: Primary CF airway epithelial cells were obtained from the UNC Cystic Fibrosis Tissue Procurement and Cell Culture Core; host or cells: primary CF airway epithelial cells
# Assay: Equivalent current assay in primary CF airway epithelial cells (Corrector Activity, NAUC normalized to 3 μM VX809)
# Assay type: cell-based
# Details: NAUC as % of positive control (VX-809)
# Method: Primary CF airway epithelial cells were obtained from the UNC Cystic Fibrosis Tissue Procurement and Cell Culture Core. The cells are grown at 37° C. in a Heracell 150i incubator using growth media (BEGM, Fischer). Cells were then transferred to differentiation media (airway liquid interface media (ALI) media; Lechner J F and LaVeck M A, J. Tissue Culture Methods 1985, 9: 43-48) for a minimum of 4 weeks on coated Costar transwells. Two days before the assay the mucus on the apical surface of the cells was aspirated after incubating with 200 μL of differentiation media for at least thirty (30) minutes. One day before the assay test compounds were added to the basolateral surface of the cells at various test concentrations dissolved in DMSO. Duplicate wells were prepared giving a n=4 or n=6 protocol.
# Cells were treated for 24 hours with various combinations and concentrations of the test articles, reference standard (3 μM VX809, positive control). Compounds stock solutions were prepared in DMSO and diluted 1/1000 into ALI media to their final assay concentration. Cells were treated with combination solutions (2 mL of each dilution) and incubated at 37° C. for 24 h.
# For the equivalent current assay, cells on six Transwell (24-well) plates were treated. Each Transwell plate was filled with 200 μl of HBS on the apical surface and 2 ml on the basolateral surface. Plates were placed horizontally in a heated mount at 37° C. and equilibrated for 30 minutes. Resting current was measured for 15 min and then blocked by the apical addition of 5 μM benzamil. After 20 min, CFTR activator (10 μM forskolin) and potentiator (either 1 μM VX-770 or 3 μM FDL176) were added to both the apical and basolateral side to stimulate CFTR. An increase in chloride current is seen as an upward deflection of the trace. After another 60 min, CFTR-172 (a CFTR inhibitor, 20 μM) and/or bumetanide (20 uM) was added to block CFTR mediated chloride current.
# The raw data, voltage vs. time and resistance vs. time for the equivalent current assay (sampling interval: 6 minutes) were transferred to Excel (Microsoft Office Professional, version 14.0.7106.5003) for analysis. CFTR specific current was computed from I=V/R (Ohms Law), the average amplitude of the increase in current elicited upon addition forskolin and ending upon addition of the CFTR channel specific blocker CFTR-172. This average is equivalent to the sum of the average forskolin activated and the average VX770-potentiated currents. The average current measured in vehicle (0.1% DMSO) treated cells, IV, was subtracted from the current for the test article, ITA, or from the corrector reference standard VX809 (3 uM, ISTD). For replicate measurements, the averaged vehicle subtracted response for the test article, was normalized to the averaged vehicle subtracted response of the reference corrector VX809 (3 μM).
# INSC=(ITA−IV)(ave)/(ISTD−IV)(ave) (Equation 1)
# A second endpoint, for the equivalent current assay, evaluated was NAUC, the normalized area under the curve (AUC) measuring the response after addition of forskolin and potentiator to the time point right before the addition of the CFTR inhibitor. The AUC is effectively the average response multiplied by the duration of the response. The AUC of the test article, AUCTA was then corrected by subtracting the average vehicle response, AUCV,ave over the same time range, and normalized as for the inhibitor-sensitive current to the difference of the corrector reference standard VX809 (3 μM VX809r,ave and the vehicle response:
# NAUCTA=[AUCTA−AUCV,ave]/[AUCVx809r,ave−AUCV,ave] (Equation 2).
# The normalized value for DMSO is 0.0 and for VX-809 alone is 1.0 for both of these equations.
# Experiments were run with a minimum of n=4 replicates per concentration. Since the distribution for the ratio of two normal distributions is a Cauchy distribution, the median value must be used for the average and the average deviation must be used for the error of all normalized data. […]
# T1 sequence (P13569 with tags, fused parts or gaps DEL508-508): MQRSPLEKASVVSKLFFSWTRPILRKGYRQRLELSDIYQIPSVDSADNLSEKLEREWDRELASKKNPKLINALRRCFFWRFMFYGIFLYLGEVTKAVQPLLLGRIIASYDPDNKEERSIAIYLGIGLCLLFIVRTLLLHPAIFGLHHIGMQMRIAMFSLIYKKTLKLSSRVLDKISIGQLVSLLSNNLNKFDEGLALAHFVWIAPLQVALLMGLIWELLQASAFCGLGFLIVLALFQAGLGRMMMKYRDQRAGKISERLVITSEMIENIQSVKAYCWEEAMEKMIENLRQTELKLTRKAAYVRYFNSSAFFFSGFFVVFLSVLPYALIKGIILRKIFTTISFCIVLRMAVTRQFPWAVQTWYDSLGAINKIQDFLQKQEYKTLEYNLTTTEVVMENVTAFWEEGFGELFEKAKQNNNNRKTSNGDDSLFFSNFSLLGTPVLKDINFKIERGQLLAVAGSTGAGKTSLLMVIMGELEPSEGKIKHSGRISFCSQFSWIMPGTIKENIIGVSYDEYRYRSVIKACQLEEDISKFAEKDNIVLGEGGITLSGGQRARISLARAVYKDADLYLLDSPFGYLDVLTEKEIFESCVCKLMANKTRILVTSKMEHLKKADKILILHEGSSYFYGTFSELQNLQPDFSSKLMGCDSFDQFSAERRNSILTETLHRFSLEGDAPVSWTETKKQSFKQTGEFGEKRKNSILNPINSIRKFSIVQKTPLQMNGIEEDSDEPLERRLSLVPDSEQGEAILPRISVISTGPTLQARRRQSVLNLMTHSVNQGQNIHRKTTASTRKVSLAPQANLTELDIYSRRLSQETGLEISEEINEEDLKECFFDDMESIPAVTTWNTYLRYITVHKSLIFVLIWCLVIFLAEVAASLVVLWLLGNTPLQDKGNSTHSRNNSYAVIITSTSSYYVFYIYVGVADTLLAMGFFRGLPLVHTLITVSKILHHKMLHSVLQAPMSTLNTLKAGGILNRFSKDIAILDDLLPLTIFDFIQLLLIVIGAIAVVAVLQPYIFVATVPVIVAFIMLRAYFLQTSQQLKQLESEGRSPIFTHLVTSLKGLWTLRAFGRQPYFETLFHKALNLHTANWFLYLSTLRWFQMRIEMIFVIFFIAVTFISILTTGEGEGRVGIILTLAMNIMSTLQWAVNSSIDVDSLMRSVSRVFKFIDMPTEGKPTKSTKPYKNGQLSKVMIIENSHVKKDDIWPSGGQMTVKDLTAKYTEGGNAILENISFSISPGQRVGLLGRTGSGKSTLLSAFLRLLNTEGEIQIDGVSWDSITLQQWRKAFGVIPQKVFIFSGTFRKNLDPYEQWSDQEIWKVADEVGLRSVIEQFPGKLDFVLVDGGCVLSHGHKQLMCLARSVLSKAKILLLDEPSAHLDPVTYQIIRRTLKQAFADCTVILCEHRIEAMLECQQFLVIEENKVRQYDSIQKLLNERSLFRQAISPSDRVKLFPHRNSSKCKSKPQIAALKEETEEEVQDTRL
row,Corr Activity (NAUC),SMILES
1,+++ (NAUC>70% of positive control),"CN(C(=O)Cn1nc(-c2cccc(Cl)c2)c2oc(NC(=O)OC(C)(C)C)cc2c1=O)c1ccc2c(c1)OC(F)(F)O2 [Example 181, tert-butyl (7-(3-chlorophenyl)-5-(2-((2,2-difluorobenzo[d][1,3]dioxol-5-yl)(methyl)amino)-2-oxoethyl)-4-oxo-4,5-dihydrofuro[2,3-d]pyridazin-2-yl)carbamate]"
2,+ (NAUC<40% of positive control),CCN(C(=O)Cn1nc(-c2ccc(C(=O)NCc3ccccc3)c(Cl)c2)c2[nH]cnc2c1=O)c1ccc2c(c1)OC(F)(F)O2 [Example 330]
3,+++ (NAUC>70% of positive control),CCN(C(=O)Cn1nc(-c2ccc(OC(C)C)c(Cl)c2)c2[nH]cnc2c1=O)c1ccc2c(c1)OC(F)(F)O2 [Example 326]
4,+ (NAUC<40% of positive control),O=C(Cn1nc(-c2cc(O)cc(OC(F)(F)F)c2)c2[nH]cnc2c1=O)N(c1ccc2c(c1)OC(F)(F)O2)C1CC1 [Example 407]
5,+ (NAUC<40% of positive control),CCN(C(=O)Cn1nc(-c2cccc(C#N)c2)c2occc2c1=O)c1ccc(OC(F)(F)F)cc1 [Example 62]
6,+ (NAUC<40% of positive control),CCN(C(=O)Cn1nc(-c2ccc(CS(C)(=O)=O)c(Cl)c2)c2[nH]cnc2c1=O)c1ccc2c(c1)OC(F)(F)O2 [Example 363]
7,+++ (NAUC>70% of positive control),Cc1nc2ccc(N(C)C(=O)Cn3nc(-c4cccc(Cl)c4)c4oc(C5CC5)cc4c3=O)cc2o1 [Example 218]
8,++ (NAUC 70-40% of positive control),CN(C(=O)Cn1nc(-c2cccc(C#N)c2)c2cn[nH]c2c1=O)c1ccc2c(c1)OC(F)(F)O2 [Example 494]
9,+++ (NAUC>70% of positive control),CN(C(=O)Cn1nc(-c2cc(C#N)cc(C(F)F)c2)c2occc2c1=O)c1ccc2c(c1F)OC(F)(F)O2 [Example 101]
10,+++ (NAUC>70% of positive control),O=C(Cn1nc(-c2cc(Cl)cc(N3CCCC3)c2)c2[nH]cnc2c1=O)N(c1ccc2c(c1)OC(F)(F)O2)C1CC1 [Example 400]
11,+++ (NAUC>70% of positive control),CCN(C(=O)Cn1nc(-c2ccc(OCC3CC3)c(Cl)c2)c2[nH]cnc2c1=O)c1ccc2c(c1)OC(F)(F)O2 [Example 347]
12,+++ (NAUC>70% of positive control),CCN(C(=O)Cn1nc(-c2cc(F)cc(Cl)c2)c2occc2c1=O)c1ccc2c(c1)OC(F)(F)O2 [Example 176]
13,+++ (NAUC>70% of positive control),CN(C(=O)Cn1nc(-c2cccc(C#N)c2)c2oc(C(=O)NC(C)(C)C)cc2c1=O)c1ccc2c(c1F)OC(F)(F)O2 [Example 148]
14,+++ (NAUC>70% of positive control),CCN(C(=O)Cn1nc(-c2cc(C#N)cc(C(C)(C)C)c2)c2[nH]cnc2c1=O)c1ccc2c(c1)OC(F)(F)O2 [Example 245]
15,+++ (NAUC>70% of positive control),CCN(C(=O)Cn1nc(-c2cc(C#N)cc(C(F)(F)F)c2)c2oc(C(=O)NC(C)(C)C)cc2c1=O)c1ccc2c(c1)OC(F)(F)O2 [Example 144]
16,+++ (NAUC>70% of positive control),CN(C(=O)Cn1nc(-c2cccc(Cl)c2)c2oc(C3CC3)cc2c1=O)c1ccc2c(c1)OC(F)(F)O2 [Example 219]
17,+++ (NAUC>70% of positive control),Cc1nc2ccc(N(C)C(=O)Cn3nc(-c4cccc(Cl)c4)c4sc(C)nc4c3=O)cc2o1 [Example 20]
18,+ (NAUC<40% of positive control),Cc1nc2ccc(N(C)C(=O)Cn3nc(-c4cccc(OC(F)(F)F)c4)c4occc4c3=O)cc2o1 [Example 93]
19,+++ (NAUC>70% of positive control),Cc1cc2c(=O)n(CC(=O)N(C)c3ccc4c(c3)OC(F)(F)O4)nc(-c3cc(Cl)cc(Cl)c3)c2o1 [Example 70]

row,Corr Activity (NAUC),SMILES
1,+ (NAUC<40% of positive control),N#Cc1cccc(-c2nn(CC(=O)N3CC4(CC4)c4c3ccc3c4OC(F)(F)O3)c(=O)c3ccoc23)c1 [Example 58]
2,++ (NAUC 70-40% of positive control),CCN(C(=O)Cn1nc(-c2ccc(OC)c(C(F)(F)F)c2)c2[nH]cnc2c1=O)c1ccc2c(c1)OC(F)(F)O2 [Example 338]
3,+ (NAUC<40% of positive control),CCN(C(=O)Cn1nc(-c2cc(SC)cc(C(F)(F)F)c2)c2[nH]cnc2c1=O)c1ccc2c(c1)OC(F)(F)O2 [Example 271]
4,+++ (NAUC>70% of positive control),CCN(C(=O)Cn1nc(-c2cc(C)cc(Cl)c2)c2occc2c1=O)c1ccc2c(c1)OC(F)(F)O2 [Example 79]
5,+++ (NAUC>70% of positive control),"CN(C(=O)Cn1nc(-c2cccc(Cl)c2)c2oc(C(=O)NC(C)(C)C)cc2c1=O)c1ccc2c(c1)OC(F)(F)O2 [Example 205, N-(tert-butyl)-7-(3-chlorophenyl)-5-(2-((2,2-difluorobenzo[d][1,3]dioxol-5-yl)(methyl)amino)-2-oxoethyl)-4-oxo-4,5-dihydrofuro[2,3-d]pyridazine-2-carboxamide]"
6,+ (NAUC<40% of positive control),CCN(C(=O)Cn1nc(-c2ccc3c(c2)OCCO3)c2[nH]cnc2c1=O)c1ccc2c(c1)OC(F)(F)O2 [Example 294]
7,+++ (NAUC>70% of positive control),CCN(C(=O)Cn1nc(-c2cc(F)cc(C#N)c2)c2oc(C3CC3)cc2c1=O)c1ccc2c(c1)OC(F)(F)O2 [Example 225]
8,+++ (NAUC>70% of positive control),CCN(C(=O)Cn1nc(-c2cc(C#N)cc(OC)c2)c2oc(C3CC3)cc2c1=O)c1ccc2c(c1)OC(F)(F)O2 [Example 226]
9,++ (NAUC 70-40% of positive control),Cc1nc2ccc(N(C)C(=O)Cn3nc(-c4cccc(C#N)c4)c4oc(C(=O)NC(C)C)cc4c3=O)cc2o1 [Example 156]
10,+++ (NAUC>70% of positive control),O=C(Cn1nc(-c2cccc(F)c2)c2[nH]cnc2c1=O)N1CCCc2c1ccc1c2OC(F)(F)O1 [Example 373]
11,+++ (NAUC>70% of positive control),CN(C(=O)Cn1nc(-c2cc(C#N)cc(C(F)F)c2)c2oc(C(=O)NC(C)(C)C)cc2c1=O)c1ccc2c(c1)OC(F)(F)O2 [Example 146]
12,+++ (NAUC>70% of positive control),N#Cc1cccc(-c2nn(CC(=O)N3CCCc4c3ccc3c4OC(F)(F)O3)c(=O)c3nc[nH]c23)c1 [Example 375]
13,+++ (NAUC>70% of positive control),"CCN(C(=O)Cn1nc(-c2cccc(F)c2)c2[nH]ccc2c1=O)c1ccc2c(c1)OC(F)(F)O2 [Example 501, N-(2,2-difluorobenzo[d][1,3]dioxol-5-yl)-N-ethyl-2-(7-(3-fluorophenyl)-4-oxo-1,4-dihydro-5H-pyrrolo[2,3-d]pyridazin-5-yl)acetamide]"
14,++ (NAUC 70-40% of positive control),CCN(C(=O)Cn1nc(-c2cccc(Cl)c2)c2c(c1=O)CCC2)c1ccc2nc(C)oc2c1 [Example 49]
15,+++ (NAUC>70% of positive control),Cc1cc2c(cc1N(C)C(=O)Cn1nc(-c3cc(Cl)cc(C#N)c3)c3oc(C(=O)NC(C)(C)C)cc3c1=O)OC(F)(F)O2 [Example 138]
16,+ (NAUC<40% of positive control),CN(C(=O)Cn1nc(-c2cccc(C#N)c2)c2oc(CN3CCOCC3)cc2c1=O)c1ccc2c(c1)OC(F)(F)O2 [Example 199]
17,+++ (NAUC>70% of positive control),CCN(C(=O)Cn1nc(-c2cccc(Cl)c2)c2oc(C3CC3)cc2c1=O)c1ccc2c(c1)OC(F)(F)O2 [Example 230]
18,+ (NAUC<40% of positive control),CCN(C(=O)Cn1nc(-c2cccc(F)c2)c2[nH]ncc2c1=O)c1ccc2c(c1)OC(F)(F)O2 [Example 499]
